Reference: patent publication US20080103205A1, “Pesticidal compositions and methods of use” (priority 2006, published 2008)
Where two headings read alike, the source gives them in different places.

Key:
Caenorhabditis elegans = test: Toxicity test, adult Caenorhabditis elegans, 96 well micro plate; format: in vivo; conditions: Caenorhabditis elegans
Protocol: (§1) Methodology: Toxicity tests were conducted using J2 juveniles of Meloidogyne incognita adult Caenorhabditis elegans collected from nematode-infested tomato plant roots and culture Petri plates, respectively. Test concentrations of 50, 100, 200, 300, or 400 ppm were prepared in 0.2% dimethylsulfoxide (DMSO) in tap water. Aliquots (300 microliters (ul)) were applied to a 96 well micro plate and a 20 ul aqueous solution containing nematodes was added. The number of nematodes in 20 ul ranged from 17 to 30. Micro plates were sealed with Parafilm™ and incubated at room temperature. Similar tests conducted with 0.2% DMSO in tap water served as controls. Nematode mortality was checked at 24, 48, 72, 120, and 168 hr after incubation. Nematodes that were motionless for 30 sec when observed under a stereomicroscope were considered paralyzed and included in mortality counts. Each concentration was replicated five times and mean percent mortality was calculated after correcting for control mortality using Abbott's formula.
(§2) Data Analysis: Mortality data were analyzed using PROC PROBIT (SAS) program and LC50 values were estimated.

Meloidogyne incognita = test: Toxicity test, J2 juveniles of Meloidogyne incognita, 96 well micro plate; format: in vivo; conditions: Meloidogyne incognita
Protocol: as §1, §2

[1] = 24 h, read-out: Corrected Mortality (%)
[2] = 48 h, read-out: Corrected Mortality (%)
[3] = 72 h, read-out: Corrected Mortality (%)
[4] = 120 h, read-out: Corrected Mortality (%)
[5] = 168 h, read-out: Corrected Mortality (%)

O=C(O)c1c2ccccc2cc2ccccc12 [9-AC, anthracene-9-carboxylic acid]
mortality at 50 ppm (Caenorhabditis elegans; 24 h): 12% | mortality at 100 ppm (Caenorhabditis elegans; 24 h): 14% | mortality at 200 ppm (Caenorhabditis elegans; 24 h): 16% | mortality at 300 ppm (Caenorhabditis elegans; 24 h): 20% | mortality at 400 ppm (Caenorhabditis elegans; 24 h): 27% | mortality at 50 ppm (Caenorhabditis elegans; [1]): 10% | mortality at 100 ppm (Caenorhabditis elegans; [1]): 12% | mortality at 200 ppm (Caenorhabditis elegans; [1]): 14% | mortality at 300 ppm (Caenorhabditis elegans; [1]): 18% | mortality at 400 ppm (Caenorhabditis elegans; [1]): 26% | mortality at 50 ppm (Caenorhabditis elegans; 48 h): 25% | mortality at 100 ppm (Caenorhabditis elegans; 48 h): 30% | mortality at 200 ppm (Caenorhabditis elegans; 48 h): 33% | mortality at 300 ppm (Caenorhabditis elegans; 48 h): 39% | mortality at 400 ppm (Caenorhabditis elegans; 48 h): 58% | mortality at 50 ppm (Caenorhabditis elegans; [2]): 23% | mortality at 100 ppm (Caenorhabditis elegans; [2]): 28% | mortality at 200 ppm (Caenorhabditis elegans; [2]): 31% | mortality at 300 ppm (Caenorhabditis elegans; [2]): 37% | mortality at 400 ppm (Caenorhabditis elegans; [2]): 57% | mortality at 50 ppm (Caenorhabditis elegans; 72 h): 44% | mortality at 100 ppm (Caenorhabditis elegans; 72 h): 48% | mortality at 200 ppm (Caenorhabditis elegans; 72 h): 58% | mortality at 300 ppm (Caenorhabditis elegans; 72 h): 65% | mortality at 400 ppm (Caenorhabditis elegans; 72 h): 83% | mortality at 50 ppm (Caenorhabditis elegans; [3]): 41% | mortality at 100 ppm (Caenorhabditis elegans; [3]): 45% | mortality at 200 ppm (Caenorhabditis elegans; [3]): 56% | mortality at 300 ppm (Caenorhabditis elegans; [3]): 63% | mortality at 400 ppm (Caenorhabditis elegans; [3]): 81% | mortality at 50 ppm (Caenorhabditis elegans; 120 h): 66% | mortality at 100 ppm (Caenorhabditis elegans; 120 h): 73% | mortality at 200 ppm (Caenorhabditis elegans; 120 h): 85% | mortality at 300 ppm (Caenorhabditis elegans; 120 h): 90% | mortality at 400 ppm (Caenorhabditis elegans; 120 h): 99% | mortality at 50 ppm (Caenorhabditis elegans; [4]): 64% | mortality at 100 ppm (Caenorhabditis elegans; [4]): 71% | mortality at 200 ppm (Caenorhabditis elegans; [4]): 84% | mortality at 300 ppm (Caenorhabditis elegans; [4]): 89% | mortality at 400 ppm (Caenorhabditis elegans; [4]): 99% | mortality at 50 ppm (Caenorhabditis elegans; 168 h): 89% | mortality at 100 ppm (Caenorhabditis elegans; 168 h): 93% | mortality at 200 ppm (Caenorhabditis elegans; 168 h): 98% | mortality at 300 ppm (Caenorhabditis elegans; 168 h): 100% | mortality at 400 ppm (Caenorhabditis elegans; 168 h): 100% | mortality at 50 ppm (Caenorhabditis elegans; [5]): 89% | mortality at 100 ppm (Caenorhabditis elegans; [5]): 92% | mortality at 200 ppm (Caenorhabditis elegans; [5]): 98% | mortality at 300 ppm (Caenorhabditis elegans; [5]): 100% | mortality at 400 ppm (Caenorhabditis elegans; [5]): 100% | mortality at 50 ppm (Meloidogyne incognita; 24 h): 11% | mortality at 100 ppm (Meloidogyne incognita; 24 h): 12% | mortality at 200 ppm (Meloidogyne incognita; 24 h): 13% | mortality at 300 ppm (Meloidogyne incognita; 24 h): 16% | mortality at 400 ppm (Meloidogyne incognita; 24 h): 23% | mortality at 50 ppm (Meloidogyne incognita; [1]): 10% | mortality at 100 ppm (Meloidogyne incognita; [1]): 11% | mortality at 200 ppm (Meloidogyne incognita; [1]): 12% | mortality at 300 ppm (Meloidogyne incognita; [1]): 15% | mortality at 400 ppm (Meloidogyne incognita; [1]): 22% | mortality at 50 ppm (Meloidogyne incognita; 48 h): 21% | mortality at 100 ppm (Meloidogyne incognita; 48 h): 27% | mortality at 200 ppm (Meloidogyne incognita; 48 h): 28% | mortality at 300 ppm (Meloidogyne incognita; 48 h): 37% | mortality at 400 ppm (Meloidogyne incognita; 48 h): 49% | mortality at 50 ppm (Meloidogyne incognita; [2]): 17% | mortality at 100 ppm (Meloidogyne incognita; [2]): 23% | mortality at 200 ppm (Meloidogyne incognita; [2]): 24% | mortality at 300 ppm (Meloidogyne incognita; [2]): 34% | mortality at 400 ppm (Meloidogyne incognita; [2]): 46% | mortality at 50 ppm (Meloidogyne incognita; 72 h): 36% | mortality at 100 ppm (Meloidogyne incognita; 72 h): 43% | mortality at 200 ppm (Meloidogyne incognita; 72 h): 49% | mortality at 300 ppm (Meloidogyne incognita; 72 h): 60% | mortality at 400 ppm (Meloidogyne incognita; 72 h): 74% | mortality at 50 ppm (Meloidogyne incognita; [3]): 32% | mortality at 100 ppm (Meloidogyne incognita; [3]): 39% | mortality at 200 ppm (Meloidogyne incognita; [3]): 46% | mortality at 300 ppm (Meloidogyne incognita; [3]): 57% | mortality at 400 ppm (Meloidogyne incognita; [3]): 72% | mortality at 50 ppm (Meloidogyne incognita; 120 h): 58% | mortality at 100 ppm (Meloidogyne incognita; 120 h): 65% | mortality at 200 ppm (Meloidogyne incognita; 120 h): 67% | mortality at 300 ppm (Meloidogyne incognita; 120 h): 84% | mortality at 400 ppm (Meloidogyne incognita; 120 h): 97% | mortality at 50 ppm (Meloidogyne incognita; [4]): 54% | mortality at 100 ppm (Meloidogyne incognita; [4]): 62% | mortality at 200 ppm (Meloidogyne incognita; [4]): 64% | mortality at 300 ppm (Meloidogyne incognita; [4]): 83% | mortality at 400 ppm (Meloidogyne incognita; [4]): 97% | mortality at 50 ppm (Meloidogyne incognita; 168 h): 81% | mortality at 100 ppm (Meloidogyne incognita; 168 h): 86% | mortality at 200 ppm (Meloidogyne incognita; 168 h): 91% | mortality at 300 ppm (Meloidogyne incognita; 168 h): 100% | mortality at 400 ppm (Meloidogyne incognita; 168 h): 100% | mortality at 50 ppm (Meloidogyne incognita; [5]): 79% | mortality at 100 ppm (Meloidogyne incognita; [5]): 84% | mortality at 200 ppm (Meloidogyne incognita; [5]): 89% | mortality at 300 ppm (Meloidogyne incognita; [5]): 100% | mortality at 400 ppm (Meloidogyne incognita; [5]): 100%

O=C(O)c1cc([N+](=O)[O-])ccc1NCCCc1ccccc1 [NPPB, 5-Nitro-2-(3-phenylpropylamino)benzoic acid]
mortality at 50 ppm (Caenorhabditis elegans; 24 h): 14% | mortality at 100 ppm (Caenorhabditis elegans; 24 h): 17% | mortality at 200 ppm (Caenorhabditis elegans; 24 h): 20% | mortality at 300 ppm (Caenorhabditis elegans; 24 h): 22% | mortality at 400 ppm (Caenorhabditis elegans; 24 h): 24% | mortality at 50 ppm (Caenorhabditis elegans; [1]): 10% | mortality at 100 ppm (Caenorhabditis elegans; [1]): 14% | mortality at 200 ppm (Caenorhabditis elegans; [1]): 18% | mortality at 300 ppm (Caenorhabditis elegans; [1]): 20% | mortality at 400 ppm (Caenorhabditis elegans; [1]): 22% | mortality at 50 ppm (Caenorhabditis elegans; 48 h): 26% | mortality at 100 ppm (Caenorhabditis elegans; 48 h): 36% | mortality at 200 ppm (Caenorhabditis elegans; 48 h): 44% | mortality at 300 ppm (Caenorhabditis elegans; 48 h): 49% | mortality at 400 ppm (Caenorhabditis elegans; 48 h): 53% | mortality at 50 ppm (Caenorhabditis elegans; [2]): 22% | mortality at 100 ppm (Caenorhabditis elegans; [2]): 33% | mortality at 200 ppm (Caenorhabditis elegans; [2]): 41% | mortality at 300 ppm (Caenorhabditis elegans; [2]): 46% | mortality at 400 ppm (Caenorhabditis elegans; [2]): 51% | mortality at 50 ppm (Caenorhabditis elegans; 72 h): 47% | mortality at 100 ppm (Caenorhabditis elegans; 72 h): 62% | mortality at 200 ppm (Caenorhabditis elegans; 72 h): 73% | mortality at 300 ppm (Caenorhabditis elegans; 72 h): 80% | mortality at 400 ppm (Caenorhabditis elegans; 72 h): 84% | mortality at 50 ppm (Caenorhabditis elegans; [3]): 43% | mortality at 100 ppm (Caenorhabditis elegans; [3]): 59% | mortality at 200 ppm (Caenorhabditis elegans; [3]): 71% | mortality at 300 ppm (Caenorhabditis elegans; [3]): 78% | mortality at 400 ppm (Caenorhabditis elegans; [3]): 83% | mortality at 50 ppm (Caenorhabditis elegans; 120 h): 70% | mortality at 100 ppm (Caenorhabditis elegans; 120 h): 85% | mortality at 200 ppm (Caenorhabditis elegans; 120 h): 93% | mortality at 300 ppm (Caenorhabditis elegans; 120 h): 97% | mortality at 400 ppm (Caenorhabditis elegans; 120 h): 100% | mortality at 50 ppm (Caenorhabditis elegans; [4]): 66% | mortality at 100 ppm (Caenorhabditis elegans; [4]): 83% | mortality at 200 ppm (Caenorhabditis elegans; [4]): 92% | mortality at 300 ppm (Caenorhabditis elegans; [4]): 97% | mortality at 400 ppm (Caenorhabditis elegans; [4]): 100% | mortality at 50 ppm (Caenorhabditis elegans; 168 h): 93% | mortality at 100 ppm (Caenorhabditis elegans; 168 h): 99% | mortality at 200 ppm (Caenorhabditis elegans; 168 h): 100% | mortality at 300 ppm (Caenorhabditis elegans; 168 h): 100% | mortality at 400 ppm (Caenorhabditis elegans; 168 h): 100% | mortality at 50 ppm (Caenorhabditis elegans; [5]): 92% | mortality at 100 ppm (Caenorhabditis elegans; [5]): 99% | mortality at 200 ppm (Caenorhabditis elegans; [5]): 100% | mortality at 300 ppm (Caenorhabditis elegans; [5]): 100% | mortality at 400 ppm (Caenorhabditis elegans; [5]): 100% | mortality at 50 ppm (Meloidogyne incognita; 24 h): 12% | mortality at 100 ppm (Meloidogyne incognita; 24 h): 14% | mortality at 200 ppm (Meloidogyne incognita; 24 h): 18% | mortality at 300 ppm (Meloidogyne incognita; 24 h): 20% | mortality at 400 ppm (Meloidogyne incognita; 24 h): 27% | mortality at 50 ppm (Meloidogyne incognita; [1]): 8% | mortality at 100 ppm (Meloidogyne incognita; [1]): 10% | mortality at 200 ppm (Meloidogyne incognita; [1]): 15% | mortality at 300 ppm (Meloidogyne incognita; [1]): 17% | mortality at 400 ppm (Meloidogyne incognita; [1]): 24% | mortality at 50 ppm (Meloidogyne incognita; 48 h): 22% | mortality at 100 ppm (Meloidogyne incognita; 48 h): 32% | mortality at 200 ppm (Meloidogyne incognita; 48 h): 41% | mortality at 300 ppm (Meloidogyne incognita; 48 h): 43% | mortality at 400 ppm (Meloidogyne incognita; 48 h): 56% | mortality at 50 ppm (Meloidogyne incognita; [2]): 17% | mortality at 100 ppm (Meloidogyne incognita; [2]): 28% | mortality at 200 ppm (Meloidogyne incognita; [2]): 37% | mortality at 300 ppm (Meloidogyne incognita; [2]): 39% | mortality at 400 ppm (Meloidogyne incognita; [2]): 53% | mortality at 50 ppm (Meloidogyne incognita; 72 h): 40% | mortality at 100 ppm (Meloidogyne incognita; 72 h): 51% | mortality at 200 ppm (Meloidogyne incognita; 72 h): 66% | mortality at 300 ppm (Meloidogyne incognita; 72 h): 73% | mortality at 400 ppm (Meloidogyne incognita; 72 h): 82% | mortality at 50 ppm (Meloidogyne incognita; [3]): 33% | mortality at 100 ppm (Meloidogyne incognita; [3]): 45% | mortality at 200 ppm (Meloidogyne incognita; [3]): 62% | mortality at 300 ppm (Meloidogyne incognita; [3]): 70% | mortality at 400 ppm (Meloidogyne incognita; [3]): 80% | mortality at 50 ppm (Meloidogyne incognita; 120 h): 62% | mortality at 100 ppm (Meloidogyne incognita; 120 h): 73% | mortality at 200 ppm (Meloidogyne incognita; 120 h): 90% | mortality at 300 ppm (Meloidogyne incognita; 120 h): 97% | mortality at 400 ppm (Meloidogyne incognita; 120 h): 100% | mortality at 50 ppm (Meloidogyne incognita; [4]): 56% | mortality at 100 ppm (Meloidogyne incognita; [4]): 69% | mortality at 200 ppm (Meloidogyne incognita; [4]): 89% | mortality at 300 ppm (Meloidogyne incognita; [4]): 97% | mortality at 400 ppm (Meloidogyne incognita; [4]): 100% | mortality at 50 ppm (Meloidogyne incognita; 168 h): 89% | mortality at 100 ppm (Meloidogyne incognita; 168 h): 93% | mortality at 200 ppm (Meloidogyne incognita; 168 h): 99% | mortality at 300 ppm (Meloidogyne incognita; 168 h): 100% | mortality at 400 ppm (Meloidogyne incognita; 168 h): 100% | mortality at 50 ppm (Meloidogyne incognita; [5]): 87% | mortality at 100 ppm (Meloidogyne incognita; [5]): 92% | mortality at 200 ppm (Meloidogyne incognita; [5]): 99% | mortality at 300 ppm (Meloidogyne incognita; [5]): 100% | mortality at 400 ppm (Meloidogyne incognita; [5]): 100%
